Laboratory results from paper PMC3853718 (Journal of Translational Medicine, 2013).

Test system: subjects with advanced malignancies
Assay: Phase 1 dose escalation: toxicity, safety and tolerability (DLT, MAD, RP2D, AEs)
[1] = 7.11 mg/m^2 (n = 7), All grades

Description: Subjects continued on treatment until there was disease progression, unacceptable toxicity, or the subject withdrew consent. The trial employed an accelerated titration design [16] starting at a dose of 0.33 mg/m^2 (one-sixth of the highest nontoxic dose in dogs).
the dose was doubled in sequential subjects until a DLT was observed or a subject experienced grade 2 toxicity [16]. In the case of an observed grade 2 toxicity, a second subject was enrolled at the same dose level. If the second subject also experienced a grade 2 toxicity, 2 additional subjects were accrued at that dose level for a total of 4 subjects. […] Each subject was allocated to only a single dose level of drug. Dose delay or modification was permitted based on laboratory and clinical assessment performed on the day of treatment.
Dose-limiting toxicities were determined during the first cycle for each dose level. A DLT was defined as any grade 3 or 4 hematologic toxicity lasting for at least 1 week, or as any grade 3 or 4 nonhematologic toxicity. […] Normal alkaline phosphatase level (< grade 1) at screening that rose to greater than or equal to grade 3; grade 1 or 2 alkaline phosphatase level at screening that rose to grade 4; grade 1 or 2 aspartate aminotransferase (AST) and/or alanine aminotransferase (ALT) levels at screening that doubled from baseline to become greater than or equal to grade 3; and any other abnormal nonhematology laboratory value greater than or equal to grade 3 that required medical intervention to treat, led to hospitalization, or persisted for at least 1 week were also considered DLTs.
Adverse events were graded based on the National Cancer Institute Common Terminology Criteria for Adverse Events (NCI CTCAE version 3.0) and were coded using the Medical Dictionary for Regulatory Activities (MedDRA version 13.0).

CCc1cnn2c(NCc3ccc[n+]([O-])c3)cc(N3CCCC[C@H]3CCO)nc12 [dinaciclib]
TEAE: Abdominal distension [1]: 1 (14) n (%) | TEAE: Abdominal pain [1]: 3 (43) n (%) | TEAE: Anemia [1]: 3 (43) n (%) | TEAE: Asthenia [1]: 2 (29) n (%) | TEAE: Back pain [1]: 1 (14) n (%) | TEAE: Constipation [1]: 1 (14) n (%) | TEAE: Cough [1]: 0 n (%) | TEAE: Decreased appetite [1]: 2 (29) n (%) | TEAE: Dehydration [1]: 1 (14) n (%) | TEAE: Diarrhea [1]: 1 (14) n (%) | TEAE: Dizziness [1]: 3 (43) n (%) | TEAE: Dyspnea [1]: 3 (43) n (%) | TEAE: Fatigue [1]: 3 (43) n (%) | TEAE: Flatulence [1]: 2 (29) n (%) | TEAE: Hyperbilirubinemia [1]: 0 n (%) | TEAE: Hyperglycemia [1]: 0 n (%) | TEAE: Hyperuricemia [1]: 0 n (%) | TEAE: Hypokalemia [1]: 1 (14) n (%) | TEAE: Hypophosphatemia [1]: 0 n (%) | TEAE: Increased ALP [1]: 0 n (%) | TEAE: Increased ALT [1]: 0 n (%) | TEAE: Increased AST [1]: 0 n (%) | TEAE: Nausea [1]: 5 (71) n (%) | TEAE: Neutropenia [1]: 0 n (%) | TEAE: Peripheral edema [1]: 1 (14) n (%) | TEAE: Pyrexia [1]: 1 (14) n (%) | TEAE: Subjects with any AE [1]: 7 (100) n (%) | TEAE: Urinary tract infection [1]: 2 (29) n (%) | TEAE: Vomiting [1]: 2 (29) n (%) | TEAE: Weight decreased [1]: 1 (14) n (%) | TEAE: Abdominal distension (7.11 mg/m^2 (n = 7), Grade 3–4): 0 n (%) | TEAE: Abdominal pain (7.11 mg/m^2 (n = 7), Grade 3–4): 1 (14) n (%) | TEAE: Anemia (7.11 mg/m^2 (n = 7), Grade 3–4): 2 (29) n (%) | TEAE: Asthenia (7.11 mg/m^2 (n = 7), Grade 3–4): 0 n (%) | TEAE: Back pain (7.11 mg/m^2 (n = 7), Grade 3–4): 0 n (%) | TEAE: Constipation (7.11 mg/m^2 (n = 7), Grade 3–4): 0 n (%) | TEAE: Cough (7.11 mg/m^2 (n = 7), Grade 3–4): 0 n (%) | TEAE: Decreased appetite (7.11 mg/m^2 (n = 7), Grade 3–4): 0 n (%) | TEAE: Dehydration (7.11 mg/m^2 (n = 7), Grade 3–4): 0 n (%) | TEAE: Diarrhea (7.11 mg/m^2 (n = 7), Grade 3–4): 0 n (%) | TEAE: Dizziness (7.11 mg/m^2 (n = 7), Grade 3–4): 0 n (%) | TEAE: Dyspnea (7.11 mg/m^2 (n = 7), Grade 3–4): 1 (14) n (%) | TEAE: Fatigue (7.11 mg/m^2 (n = 7), Grade 3–4): 0 n (%) | TEAE: Flatulence (7.11 mg/m^2 (n = 7), Grade 3–4): 0 n (%) | TEAE: Hyperbilirubinemia (7.11 mg/m^2 (n = 7), Grade 3–4): 0 n (%) | TEAE: Hyperglycemia (7.11 mg/m^2 (n = 7), Grade 3–4): 0 n (%) | TEAE: Hyperuricemia (7.11 mg/m^2 (n = 7), Grade 3–4): 0 n (%) | TEAE: Hypokalemia (7.11 mg/m^2 (n = 7), Grade 3–4): 0 n (%) | TEAE: Hypophosphatemia (7.11 mg/m^2 (n = 7), Grade 3–4): 0 n (%) | TEAE: Increased ALP (7.11 mg/m^2 (n = 7), Grade 3–4): 0 n (%) | TEAE: Increased ALT (7.11 mg/m^2 (n = 7), Grade 3–4): 0 n (%) | TEAE: Increased AST (7.11 mg/m^2 (n = 7), Grade 3–4): 0 n (%) | TEAE: Nausea (7.11 mg/m^2 (n = 7), Grade 3–4): 0 n (%) | TEAE: Neutropenia (7.11 mg/m^2 (n = 7), Grade 3–4): 0 n (%) | TEAE: Peripheral edema (7.11 mg/m^2 (n = 7), Grade 3–4): 0 n (%) | TEAE: Pyrexia (7.11 mg/m^2 (n = 7), Grade 3–4): 0 n (%) | TEAE: Subjects with any AE (7.11 mg/m^2 (n = 7), Grade 3–4): 4 (57) n (%) | TEAE: Urinary tract infection (7.11 mg/m^2 (n = 7), Grade 3–4): 0 n (%) | TEAE: Vomiting (7.11 mg/m^2 (n = 7), Grade 3–4): 1 (14) n (%) | TEAE: Weight decreased (7.11 mg/m^2 (n = 7), Grade 3–4): 0 n (%) | TEAE: Abdominal distension (10 mg/m^2 (n = 3), All grades): 0 n (%) | TEAE: Abdominal pain (10 mg/m^2 (n = 3), All grades): 1 (33) n (%) | TEAE: Anemia (10 mg/m^2 (n = 3), All grades): 0 n (%) | TEAE: Asthenia (10 mg/m^2 (n = 3), All grades): 0 n (%) | TEAE: Back pain (10 mg/m^2 (n = 3), All grades): 0 n (%) | TEAE: Constipation (10 mg/m^2 (n = 3), All grades): 2 (67) n (%) | TEAE: Cough (10 mg/m^2 (n = 3), All grades): 0 n (%) | TEAE: Decreased appetite (10 mg/m^2 (n = 3), All grades): 0 n (%) | TEAE: Dehydration (10 mg/m^2 (n = 3), All grades): 0 n (%) | TEAE: Diarrhea (10 mg/m^2 (n = 3), All grades): 1 (33) n (%) | TEAE: Dizziness (10 mg/m^2 (n = 3), All grades): 0 n (%) | TEAE: Dyspnea (10 mg/m^2 (n = 3), All grades): 0 n (%) | TEAE: Fatigue (10 mg/m^2 (n = 3), All grades): 0 n (%) | TEAE: Flatulence (10 mg/m^2 (n = 3), All grades): 0 n (%) | TEAE: Hyperbilirubinemia (10 mg/m^2 (n = 3), All grades): 0 n (%) | TEAE: Hyperglycemia (10 mg/m^2 (n = 3), All grades): 1 (33) n (%) | TEAE: Hyperuricemia (10 mg/m^2 (n = 3), All grades): 0 n (%) | TEAE: Hypokalemia (10 mg/m^2 (n = 3), All grades): 1 (33) n (%) | TEAE: Hypophosphatemia (10 mg/m^2 (n = 3), All grades): 0 n (%) | TEAE: Increased ALP (10 mg/m^2 (n = 3), All grades): 0 n (%) | TEAE: Increased ALT (10 mg/m^2 (n = 3), All grades): 0 n (%) | TEAE: Increased AST (10 mg/m^2 (n = 3), All grades): 0 n (%) | TEAE: Nausea (10 mg/m^2 (n = 3), All grades): 1 (33) n (%) | TEAE: Neutropenia (10 mg/m^2 (n = 3), All grades): 1 (33) n (%) | TEAE: Peripheral edema (10 mg/m^2 (n = 3), All grades): 0 n (%) | TEAE: Pyrexia (10 mg/m^2 (n = 3), All grades): 0 n (%) | TEAE: Subjects with any AE (10 mg/m^2 (n = 3), All grades): 3 (100) n (%) | TEAE: Urinary tract infection (10 mg/m^2 (n = 3), All grades): 1 (33) n (%) | TEAE: Vomiting (10 mg/m^2 (n = 3), All grades): 2 (67) n (%) | TEAE: Weight decreased (10 mg/m^2 (n = 3), All grades): 0 n (%) | TEAE: Abdominal distension (10 mg/m^2 (n = 3), Grade 3–4): 0 n (%) | TEAE: Abdominal pain (10 mg/m^2 (n = 3), Grade 3–4): 0 n (%) | TEAE: Anemia (10 mg/m^2 (n = 3), Grade 3–4): 0 n (%) | TEAE: Asthenia (10 mg/m^2 (n = 3), Grade 3–4): 0 n (%) | TEAE: Back pain (10 mg/m^2 (n = 3), Grade 3–4): 0 n (%) | TEAE: Constipation (10 mg/m^2 (n = 3), Grade 3–4): 0 n (%) | TEAE: Cough (10 mg/m^2 (n = 3), Grade 3–4): 0 n (%) | TEAE: Decreased appetite (10 mg/m^2 (n = 3), Grade 3–4): 0 n (%) | TEAE: Dehydration (10 mg/m^2 (n = 3), Grade 3–4): 0 n (%) | TEAE: Diarrhea (10 mg/m^2 (n = 3), Grade 3–4): 0 n (%) | TEAE: Dizziness (10 mg/m^2 (n = 3), Grade 3–4): 0 n (%) | TEAE: Dyspnea (10 mg/m^2 (n = 3), Grade 3–4): 0 n (%) | TEAE: Fatigue (10 mg/m^2 (n = 3), Grade 3–4): 0 n (%) | TEAE: Flatulence (10 mg/m^2 (n = 3), Grade 3–4): 0 n (%) | TEAE: Hyperbilirubinemia (10 mg/m^2 (n = 3), Grade 3–4): 0 n (%)
